Assay results reported in patent publication US8222219B2, “Glucopyranoside compound” (Mitsubishi Tanabe Pharma Corporation, priority 2003, dated 2012).

Assays:
[1] = system: Sprague-Dawley (SD) rats; assay: Urinary glucose excretion test in rats; assay type: in vivo, rat; settings: male SD rats, 30 mg/kg oral gavage, urine collected for 24 hours; daily amount of glucose excreted per individual
Experimental: 2. Urinary Glucose Excretion Test in Rats Test Compounds:
Compounds described in the above examples were used for the urinary glucose excretion test in rats.
6-week-old male Sprague-Dawley (SD) rats were housed in individual metabolic cages with free access to food and water from 2 days prior to the experiment. On the morning of the experiment, rats were administered vehicle (0.2% carboxymethyl cellulose solution containing 0.2% Tween80) or test compounds (30 mg/kg) by oral gavage at a volume of 10 ml/kg. Then, urine of the rat was collected for 24 hours, and the urine volume was measured. Subsequently, the glucose concentration in urine was quantified using the enzymatic assay kit and the daily amount of glucose excreted in urine per individual was calculated.

[2] = target: T1, human SGLT2 (Homo sapiens, UniProt P31639); assay: Assay for SGLT2 inhibition (14C-AMG uptake in CHOK1 cells expressing human SGLT2); assay type: cell-based; settings: CHOK1 cells expressing human SGLT2; 14C-AMG uptake 0.5 mM, 2 hours at 37° C.; read-out: IC50
T1 construct: expressed in transfected cells; host or cells: CHOK1 (CHO-K1) cells, kept under Geneticin selection
T1 sequence (P31639 1-672): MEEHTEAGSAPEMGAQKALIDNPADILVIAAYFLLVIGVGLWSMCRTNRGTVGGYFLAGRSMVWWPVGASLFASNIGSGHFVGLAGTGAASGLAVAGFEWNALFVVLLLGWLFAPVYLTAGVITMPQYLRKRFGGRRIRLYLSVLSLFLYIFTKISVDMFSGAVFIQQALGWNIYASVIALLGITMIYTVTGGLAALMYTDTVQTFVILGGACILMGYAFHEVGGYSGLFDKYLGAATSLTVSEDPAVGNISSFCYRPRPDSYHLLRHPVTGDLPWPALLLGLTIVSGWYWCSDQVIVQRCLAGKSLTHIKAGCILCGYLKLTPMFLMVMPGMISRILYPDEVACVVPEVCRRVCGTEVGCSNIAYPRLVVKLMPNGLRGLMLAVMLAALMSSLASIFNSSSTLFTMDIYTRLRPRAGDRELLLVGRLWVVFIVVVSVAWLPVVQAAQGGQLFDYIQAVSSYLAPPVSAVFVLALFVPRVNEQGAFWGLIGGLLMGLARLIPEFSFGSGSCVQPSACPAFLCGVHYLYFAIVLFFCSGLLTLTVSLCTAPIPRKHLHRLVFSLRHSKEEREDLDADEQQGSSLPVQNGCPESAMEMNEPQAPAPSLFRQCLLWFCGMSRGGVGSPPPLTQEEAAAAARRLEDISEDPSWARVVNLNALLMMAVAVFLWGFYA
Experimental: 1. Assay for SGLT2 Inhibition
Compounds described in the above examples were used for the SGLT2 inhibition assay.
CHOK1 cells expressing human SGLT2 were seeded in 24-well plates at a density of 400,000 cells/well in F-12 nutrient mixture (Ham's F-12) containing 10% fetal bovine serum, 400 μg/ml Geneticin, 50 units/ml sodium penicillin G (Gibco-BRL) and 50 μg/ml streptomycin sulfate. […] Test compounds were dissolved in DMSO. The final concentration of DMSO was 0.5%. The transport reaction was initiated by addition of 50 μl [^14C]-methyl-α-D-glucopyranoside (^14C-AMG) solution (final concentration, 0.5 mM). After incubation for 2 hours at 37° C., the uptake was stopped by aspiration of the incubation mixture, the cells were washed three times with ice-cold PBS. Then, cells were solubilized with 0.3 N NaOH and aliquots were taken for determination of radioactivity by a liquid scintillation counter. Nonspecific AMG uptake was defined as that which occurred in the presence of 100 μM of phlorizin, a specific inhibitor of sodium-dependent glucose cotransporter. Specific uptake was normalized for the protein concentrations measured by the method of Bradford.

Structure (SMILES) | melting point [°C] | IC50 [2] [nM] | Urinary glucose [1]
OC[C@H]1O[C@@H](c2ccc(F)c(Cc3ccc(-c4nccs4)s3)c2)[C@H](O)[C@@H](O)[C@@H]1O [Example 190, 1-(β-D-glucopyranosyl)-4-fluoro-3-(5-(2-thiazolyl)-2-thienylmethyl)benzene] | 161.5 to 162 | 3.1 | 
OC[C@H]1O[C@@H](c2ccc(Cl)c(Cc3ccc(-c4cccc(C(F)F)c4)s3)c2)[C@H](O)[C@@H](O)[C@@H]1O [Example 178, 1-(β-D-glucopyranosyl)-4-chloro-3-(5-(3-difluoromethylphenyl)-2-thienylmethyl)benzene] |  | 5.1 | B (2000 mg>B≧1000 mg)
OC[C@H]1O[C@@H](c2ccc(Cl)c(Cc3ccc(-c4cccc(F)n4)s3)c2)[C@H](O)[C@@H](O)[C@@H]1O [Example 156] |  | 1.1 | A (A≧2000 mg)

Second part, led by results:

melting point [°C] | IC50 [2] [nM] | Structure (SMILES) | Urinary glucose [1]
127 to 129 | 2.4 | N#Cc1cccc(-c2ccc(Cc3cc([C@@H]4O[C@H](CO)[C@@H](O)[C@H](O)[C@H]4O)ccc3F)s2)c1 [Example 189, 1-(β-D-glucopyranosyl)-4-fluoro-3-(5-(3-cyanophenyl)-2-thienylmethyl)benzene] | B (2000 mg>B≧1000 mg)
 | 4.1 | COc1ccc(-c2ccc(Cc3cc([C@@H]4O[C@H](CO)[C@@H](O)[C@H](O)[C@H]4O)ccc3C)s2)cc1 [Example 144] | B (2000 mg>B≧1000 mg)
 | 3.4 | Cc1ccc([C@@H]2O[C@H](CO)[C@@H](O)[C@H](O)[C@H]2O)cc1Cc1ccc(-c2ccc(F)nc2)s1 [Example 120, 1-(β-D-glucopyranosyl)-3-(5-(6-fluoro-3-pyridyl)-2-thienylmethyl)-4-methylbenzene] | A (A≧2000 mg)
 | 6.7 | Cc1ccc([C@@H]2O[C@H](CO)[C@@H](O)[C@H](O)[C@H]2O)cc1Cc1ccc(-c2ccc(F)c(F)c2)s1 [Example 177, 1-(β-D-glucopyranosyl)-3-(5-(3,4-difluorophenyl)-2-thienylmethyl)-4-methylbenzene] | A (A≧2000 mg)
 | 5.9 | CCc1cccc(-c2ccc(Cc3cc([C@@H]4O[C@H](CO)[C@@H](O)[C@H](O)[C@H]4O)ccc3C)s2)c1 [Example 140] | B (2000 mg>B≧1000 mg)
